Legend:
[1] = system: enolase, PK, LDH; assay: Counter-screen assay (coupled enzymes without PGAM1, 2PG as substrate); type: biochemical
Description: The counter-screen assay was then performed to exclude the off-target inhibition against other enzymes in the in vitro assay (Table 3).

[2] = system: H1299 cell line; assay: In vitro antiproliferation of H1299 cells (MTT method); type: cell-based; conditions: Homo sapiens, NCI-H1299, 72 h, means ± SD from three determinations
Description: Then, some representative compounds were picked out to evaluate their antiproliferative activity (H1299 cell line) by the MTT method (Table 4).
2 × 10^3 cells were seeded in a 96-well plate before starting the assay and they were cultured at 37 °C. After seeding for 24 h, cells were treated with inhibitors with a specific concentration and incubated at 37 °C for 72 h, followed by incubation with 0.5 mg mL^−1 MTT for 4 h at 37 °C. Then, 200 µL of DMSO was added and the absorbance was measured at 570 nm.

[3] = system: PGAM1; conditions: Figure 1; ref 14 (PGMI-004A), ref 20 (EGCG); cited from earlier work
[4] = system: H1299 cell; conditions: Figure 1; ref 14 (PGMI-004A), ref 20 (EGCG); cited from earlier work

Row | SMILES | Counter-Screen Assay (5 μM), inhibition ratio against the other three enzymes [1] [%] | IC50 [2] [µM] | IC50 [3] [µM] | IC50 [4] [µM]
1 | O=c1c2c(O)cccc2oc2cc(NS(=O)(=O)c3cccc(Cl)c3F)cc(O)c12 [Compound 9h, 3-Chloro-N-(1,8-dihydroxy-9-oxo-9H-xanthen-3-yl)-2-fluorobenzenesulfonamide] | 12 | 14.1 ± 1.9 | – | –
2 | CC(C)(C)c1ccc(S(=O)(=O)Nc2cc(O)c3c(=O)c4c(O)cccc4oc3c2)cc1 [Compound 9k, 4-(tert-Butyl)-N-(1,8-dihydroxy-9-oxo-9H-xanthen-3-yl)benzenesulfonamide] | 12 | 21.1 ± 1.7 | – | –
3 | O=c1c2c(O)cccc2oc2cc(NS(=O)(=O)c3ccc(C4CCCCC4)cc3)cc(O)c12 [Compound 9l, 4-Cyclohexyl-N-(1,8-dihydroxy-9-oxo-9H-xanthen-3-yl)benzenesulfonamide] | 15 | 18.5 ± 2.3 | – | –
4 | O=c1c2c(O)cccc2oc2cc(NS(=O)(=O)c3ccc(-c4ccccc4)cc3)cc(O)c12 [Compound 9m, N-(1,8-Dihydroxy-9-oxo-9H-xanthen-3-yl)-[1,1′-biphenyl]-4-sulfonamide] | 9 | 20.1 ± 1.4 | – | –
5 | O=c1c2c(O)cccc2oc2cc(NS(=O)(=O)c3cccc4ccccc34)cc(O)c12 [Compound 9n, N-(1,8-Dihydroxy-9-oxo-9H-xanthen-3-yl)naphthalene-1-sulfonamide] | 13 | – | – | –
6 | O=C(O[C@@H]1Cc2c(O)cc(O)cc2O[C@@H]1c1cc(O)c(O)c(O)c1)c1cc(O)c(O)c(O)c1 [EGCG, epigallocatechin gallate] | – | – | 0.49 | > 80
7 | Nc1ccn([C@@H]2O[C@H](CO)[C@@H](O)C2(F)F)c(=O)n1 [Gemcitabine, reference compound] | – | 0.193 | – | –
8 | O=C1c2ccccc2C(=O)c2c1cc(S(=O)(=O)Nc1ccc(C(F)(F)F)cc1)c(O)c2O [PGMI-004A, reference compound] | – | 26 ± 2.1 | – | 25.6

Further lines, with some results ahead:

Row | Counter-Screen Assay (5 μM), inhibition ratio against the other three enzymes [1] [%] | IC50 [2] [µM] | SMILES | IC50 [3] [µM] | IC50 [4] [µM]
9 | 13 | 42.7 ± 3.9 | COc1cccc2c(=O)c3c(O)cc(NS(=O)(=O)c4ccc(-c5ccccc5)cc4)cc3oc12 [Compound 15b, N-(1-Hydroxy-5-methoxy-9-oxo-9H-xanthen-3-yl)-[1,1′-biphenyl]-4-sulfonamide] | – | –
10 | 7 | – | Cc1cccc2c(=O)c3c(O)cc(NS(=O)(=O)c4ccc(-c5ccccc5)cc4)cc3oc12 [Compound 15c, N-(1-Hydroxy-5-methyl-9-oxo-9H-xanthen-3-yl)-[1,1′-biphenyl]-4-sulfonamide] | – | –
11 | 6 | 19.6 ± 2.2 | COc1ccc2oc3cc(NS(=O)(=O)c4ccc(-c5ccccc5)cc4)cc(O)c3c(=O)c2c1 [Compound 15d, N-(1-Hydroxy-7-methoxy-9-oxo-9H-xanthen-3-yl)-[1,1′-biphenyl]-4-sulfonamide] | – | –
12 | 7 | – | Cc1ccc2oc3cc(NS(=O)(=O)c4ccc(-c5ccccc5)cc4)cc(O)c3c(=O)c2c1 [Compound 15e, N-(1-Hydroxy-7-methyl-9-oxo-9H-xanthen-3-yl)-[1,1′-biphenyl]-4-sulfonamide] | – | –
13 | 8 | 32.7 ± 0.9 | O=c1c2cc(Cl)ccc2oc2cc(NS(=O)(=O)c3ccc(-c4ccccc4)cc3)cc(O)c12 [Compound 15f, N-(7-Chloro-1-hydroxy-9-oxo-9H-xanthen-3-yl)-[1,1′-biphenyl]-4-sulfonamide] | – | –
14 | 5 | 33.8 ± 6.1 | O=c1c2cc([N+](=O)[O-])ccc2oc2cc(NS(=O)(=O)c3ccc(-c4ccccc4)cc3)cc(O)c12 [Compound 15h, N-(1-Hydroxy-7-nitro-9-oxo-9H-xanthen-3-yl)-[1,1′-biphenyl]-4-sulfonamide] | – | –
15 | 10 | 30.6 ± 2.4 | O=c1c2cc(O)ccc2oc2cc(NS(=O)(=O)c3ccc(-c4ccccc4)cc3)cc(O)c12 [Compound 15i, N-(1,7-Dihydroxy-9-oxo-9H-xanthen-3-yl)-[1,1′-biphenyl]-4-sulfonamide] | – | –
16 | 7 | 31.1 ± 4.5 | CC(=O)Oc1ccc2oc3cc(NS(=O)(=O)c4ccc(-c5ccccc5)cc4)cc(O)c3c(=O)c2c1 [Compound 15j, 6-([1,1′-Biphenyl]-4-sulfonamido)-8-hydroxy-9-oxo-9H-xanthen-2-yl acetate] | – | –
